Laboratory results: US20180250351A1 (priority 2015, published 2018)
Read-outs that look alike come from different tables or passages of the source.

What was measured:
[1] = target: T1, UDP-glucose dehydrogenase (UDP-GDH) (Homo sapiens, UniProt O60701); test: Spectrophotometric test of inhibition of UDP-glucose dehydrogenase; assay type: biochemical; settings: for type of inhibition of UDP-GDH: in relation to enzyme/substrate and cofactor NAD+; for IC50: 37° C., 340 nm
T1 sequence (O60701 1-494): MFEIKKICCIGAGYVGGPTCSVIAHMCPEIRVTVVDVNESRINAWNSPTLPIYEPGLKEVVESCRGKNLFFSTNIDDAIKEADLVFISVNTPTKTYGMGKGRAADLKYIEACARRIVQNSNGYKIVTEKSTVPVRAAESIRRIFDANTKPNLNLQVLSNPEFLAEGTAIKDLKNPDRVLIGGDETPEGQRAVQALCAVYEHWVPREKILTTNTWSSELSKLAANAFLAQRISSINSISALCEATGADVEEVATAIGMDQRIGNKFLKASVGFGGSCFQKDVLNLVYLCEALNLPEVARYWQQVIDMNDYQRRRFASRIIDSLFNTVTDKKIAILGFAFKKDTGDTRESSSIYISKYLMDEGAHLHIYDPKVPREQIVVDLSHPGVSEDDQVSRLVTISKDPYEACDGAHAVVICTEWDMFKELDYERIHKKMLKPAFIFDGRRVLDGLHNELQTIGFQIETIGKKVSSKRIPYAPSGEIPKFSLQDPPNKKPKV
Method: The UDP-GDH enzyme catalyses the oxidation of the UDP-glucose using the NAD+ as the oxidant agent, according to the following formula: […]
UDP-glucose+2NAD++H2O→UDP-glucuronic acid+2NADH+2H+
For the spectrophotometric evaluation of the enzymatic activity the following reactive mix has been used:
The test has been done at 37° C. and monitored at 340 nm for 20 minutes.
The algae has thus been suspended in different concentrations (10-50-100 mg/ml) in distilled water on the one hand and in 100% ethanol on the other; then homogenized and afterwards centrifuged at 5000 rpm for 10 minutes. We have then checked through spectrophotometry the presence in the two extracts of the relevant components, verifying the presence of phycocyanins at 620 nm for the water extract and of carotenoids at 400 nm and chlorophyll at 664 nm for the ethanol extract.

[2] = curcumin dose 100 mg/kg (NPs) or 250 mg/kg (others); cited from earlier work
[3] = human, in vivo
[4] = animals; cited from earlier work
[5] = humans; absolute terms, curcumin alone at the non detectable level; cited from earlier work

phycocyanin
type of inhibition of UDP-GDH [1]: mixed type
IC50 ([1]; purified molecule): 2.4 µM

COc1cc(/C=C/C(=O)CC(=O)/C=C/c2ccc(O)c(OC)c2)ccc1O [curcumin alone, curcumin]
AUC [2]: 0.312 µg·h/mL
Cmax [2]: 0.0903 µg/mL
time of absorption peak after ingestion [3]: approximately 15 min
time of peak after ingestion [3]: approximately 1 hour

phycocyanobilin
type of inhibition of UDP-GDH [1]: directly competitive
IC50 ([1]; purified pigment): 0.0027 µM

O=C(/C=C/C=C/c1ccc2c(c1)OCO2)N1CCCCC1 [Piperine, piperine]
plasma concentration increase of curcumin [4]: 154%
plasma concentration increase of curcumin [5]: 2000%
